The text below walks through data of patent publication US20090291088A1, “THERAPEUTIC COMBINATIONS OF ANTI-IGF-1R ANTIBODIES AND OTHER COMPOUNDS” (Biogen Idec MA Inc., priority 2008, published 2009).

For assay [1], the system named is NSCLC, pancreatic, and colon cancer cell lines. Kind of assay: Cell viability, M13-C06 and PD0325901 alone or combined. The format is cell-based. The conditions noted are these: PD0325901 single agent. On the procedure:
Cells were plated at 5000 cells/well in 96-well tissue culture plates in RPMI-1640 containing 10% fetal bovine serum, then treated with M13-C06 and PD0325901 as single agents or in combination at 1:3 serial dilutions with a starting concentration of 200 nM for M13-C06 and 10 microM for PD0325901. Cell viability was determined three or five days later by measuring ATP levels with CELL TITER GLO™ reagent from Promega.

Assay [2] concerns AKT and MAPK phosphorylation in NSCLC cell lines. The assay is described as follows: Western blot of AKT and MAPK phosphorylation, M13-C06 and erlotinib. The format is cell-based. The conditions noted are these: 10 microM erlotinib, 3 hours. The method, then:
We set to determine the molecular mechanisms underlying the observed enhanced anti-tumor effect of combining erlotinib and M13-C06 in NSCLC cell lines. AKT and MAPK activation status was evaluated after treatment with erlotinib and M13-C06 as single agents or in combination, since AKT and MAPK are common downstream signaling targets of IGF-1R and EGFR. Tumor cell lines were plated onto 6-well plates at 1.2×10^6 per well, in RPMI+10% FBS media, and allowed to adhere overnight. The following day, media from wells was removed and replaced with 100 nM M13-C06 or IDEC151 (human IgG4 isotype control antibody) in combination with either media (single agent control) or 10 microM erlotinib in media. Assay plates were incubated in a 37° C., 5% C02 humidified incubator for 3 hours, and cellular proteins were extracted in cell lysis buffer (Cell Signaling Technology, cat# 9803 (Danvers, Mass. USA)). Protein concentrations in lysates were measured using a BCA protein assay kit (Pierce, cat# 23227 (Pierce Biotechnology, Inc., Rockford, Ill.)) and equal amount of proteins were run on a NUPAGE 4-12% Tris-Bis gel, and transferred to a nitrocellulose membrane (0.45 μm pore). Phosphorylation was detected by treatment with antibodies specific for phospho-AKT, total AKT, phospho-MAPK, or total MAPK (Cell Signaling technology, cat #9271, 9272, 9101, 9102), followed by treatment with anti-Rabbit-IgG-HRP (Southern Biotech. cat# 4050-05). Blots were developed with Supersignal Western Substrate Kit (Pierce, cat#34095) and the chemiluminescent image was captured on a BioRad Max2 imager. […] In general, the effects of M13-C06 and erlotinib on downstream signaling molecules AKT and MAPK correlate with their effects on cell growth as shown in FIG. 41.
In general terms: In western blotting, separated proteins are transferred to a membrane and probed.

Assay [3] concerns NSCLC, pancreatic and colon cancer cell lines. Kind of assay: Cell viability, M13-C06 and erlotinib alone or combined. The format is cell-based. On the procedure: M13-C06 (human IgG4 Pagly anti-IGF-1R antibody) is currently in clinical development for multiple solid tumors. We evaluated the effect of anti-IGF-1R M13-C06 in combination with erlotinib (American Custom Chemicals Corp., cat# 183319-69-9 (San Diego, Calif.)) on the growth (proliferation) of a panel of NSCLC, pancreatic and colon cancer cell lines. Cells were plated at 5000 cells per well in 96-well tissue culture plates in RPMI-1640 (containing 10% fetal bovine serum (FBS, Hyclone cat# Sh30071.03)) and then treated with M13-C06 or erlotinib as single agents or in combination at 1:3 serial dilutions with a starting concentration of 200 nM and 20 microM for M13-C06 and for erlotinib respectively.

Assay [4] relates to AKT and S6K signaling in sarcoma and lung tumor cell lines. The assay is described as follows: Western blot of AKT and S6K phosphorylation, M13-C06 and rapamycin. The class given is cell-based. The conditions noted are these: 100 nM rapamycin, 3 hours. The method, then:
It has been reported that rapamycin inhibition of mTOR induces AKT activation through S6K (S6 kinase) and IGF-1R/IRS-1 (Insulin Receptor Substrate-1) dependent feedback loop (O'Reilly, et al., Cancer Research, vol. 66, p. 1500-1508 (2006)). We therefore examined the effect of M13-C06 and rapamycin on AKT and S6K signaling in selected sarcoma and lung tumor cell lines in which M13-C06 enhanced the anti-tumor activity of rapamycin. Cells were plated onto 12 well plates at 6×10^5 per well, in McCoy's 5A medium plus 15% FBS for sarcoma and RPMI-1640 plus 10% FBS for NSCLC cell lines, and allowed to adhere overnight. The following day, media from wells was removed and replaced with 100 nM M13-C06 or IDEC151 in combination with either media (single agent control) or 100 nM rapamycin in media. Assay plates were incubated in a 37° C., 5% CO2 humidified incubator for 3 hours, cells were lysed in Cell Signaling Lysis Buffer (Cell Signal Technologies, #9803), and the lysates were normalized by protein concentration and run on a NUPAGE 4-12% Tris-Bis gel, then transferred to a nitrocellulose membrane. Phosphorylation status of AKT and S6K was detected by treatment with antibodies specific for phospho-AKT, total AKT phospho-S6K, or total S6K (Cell Signaling technology, cat# 2215, 2217), then by treatment with anti-Rabbit-IgG-HRP (Cell Signaling Biotechnology, cat# 7071). […]

Assay [5] has as its system NSCLC, pancreatic, colon cancer and sarcoma cell lines. Kind of assay: Cell viability, M13-C06 and rapamycin alone or combined. The class given is cell-based. On the procedure: For cell growth assays, cells were plated at 5000 cells per well in 96-well tissue culture plates in RPMI-1640 containing 10% fetal bovine serum (for most cell lines) or McCoy's 5A plus 15% FBS (for sarcoma cell lines). Cells were treated with M13-C06 and rapamycin (American Custom Chemicals Corp. cat# 53123-88-9) as a single agent or in combination at 1:3 serial dilutions with a starting concentration of 200 nM for M13-C06 and 100 nM or 1 microM for rapamycin for three or five days. Cell viability was determined by measuring ATP levels with CELL TITER GLO™ reagent.

In a further assay the test system is IGF-1R-Fc. Kind of assay: Surface plasmon resonance analysis of the IGF-1R-Fc mutant library (46 mutants). The format is binding, human. The settings on record: KD relative to WT hIGF-1R-Fc; for C06 binding: M13-C06 Fab; for C03 binding: M14-C03 Fab; for G11 binding: M14-G11 Fab; for P1E2 binding: P1E2 antibody; for αIR3 binding: αIR3 antibody. The method, then: Surface plasmon resonance (SPR) experiments were performed on a Biacore 3000 instrument set to 25° C. Both mIGF-1R-Fc and hIGF-1R-Fc bind with high apparent affinity to research grade CM5 sensorchip surfaces containing immobilized M13-C06, M14-C03, and M14-G11. The antibody sensorchip surfaces were prepared by injecting each antibody (diluted 100 μg/mL in 10 mM Acetate, pH 4.0) over EDC/NHS-activated sensorchip surfaces according to the standard protocol of the manufacturer. The ability of mIGF-1R-Fc to bind the antibody surfaces was the result of high apparent avidity of the protein. Both hIGF-1R-Fc and mIGF-1R-Fc proteins oligomerize due to the incorporation of two separate homodimeric regions (IGF-1R and IgG1-Fc). To distinguish between actual high affinity antibody binding to hIGF-1R-Fc and low affinity antibody binding to mIGF-1R-Fc, the receptor-Fc fusions were captured on the M13-C06 and M14-G11 sensorchip surfaces followed by an additional injection of antibody (αIR3 and P1E2) or antibody Fab (M13-C06, M14-C03, and M14-G11). […] After, completion of the receptor-Fc loading step, flow rates were elevated to 5 μl/min. Solutions containing M13-C06 Fab or αIR3 antibody at 10 nM, 3 nM, or 1 nM or M14-C03 Fab, M14-G11 Fab, or P1E2 antibody at 30 nM, 10 nM, or 3 nM were injected (50 μL) subsequent to the loading of each receptor-Fc construct. Dissociation was measured for 7 minutes after the antibody injections were complete. Finally, the flow rate was elevated to 30 μL/min and the chip surfaces were regenerated by 2×10 μL injections of 0.1 M glycine, pH 2.
M13-C06, M14-C03, M14-G11, P1E2 and αIR3 were assayed for their ability to interact with each of the mutant IGF-1R-Fc fusion constructs using surface plasmon resonance (Biacore). To remove the uncertain concentrations of the IGF-1R-Fc fusion constructs as a variable in the assay, each mutant construct was captured on a research grade CM5 chip containing ˜10,000 RU immobilized […], M14-C03, and M14-G11 antibody. To enhance our ability to visualize attenuations in antibody binding to the captured mutant IGF-1R constructs, we utilized enzymatically derived M13-C06, M14-C03, and M14-G11 antigen binding fragments (Fabs).
In general terms: Surface plasmon resonance follows binding to a sensor surface in real time, without labels.

The test system of another assay is IGF-1R. The assay is described as follows: Biacore analysis of the IGF-1R-Fc mutant library: M13-C06 Fab binding to receptor-Fc captured on M13-C06 chip. On the set-up: species or system human. The conditions noted are these: M13-C06 Fab binding to mutant hIGF-1R-Fc captured on M13-C06 chip. The text has this:
Both mIGF-1R-Fc and hIGF-1R-Fc bind with high apparent affinity to the M13-C06, M14-C03, and M14-G11 sensorchip surfaces described above due to their highly multivalent nature induced by the incorporation of two separate homodimeric regions (IGF-1R and IgG1-Fc). To distinguish between the actual high affinity binding hIGF-1R-Fc to M13-C06 and the low affinity binding of mIGF-1R-Fc to M13-C06, the receptor-Fc fusions were captured on the M13-C06 sensorchip surface followed by an additional soluble M13-C06 Fab binding event. […] After, completion of the receptor-Fc loading step, flow rates were elevated to 5 μl/min. 10 nM, […], and 1 nM M13-C06 Fab concentrations were injected (50 μL) subsequent to the loading of each receptor-Fc construct. At the end of each sensorgram, the flow rate was elevated to 30 μl/min and the chip surface was regenerated by 2×10 μL injections of 0.1 M glycine, pH 2.

`O=C(NOC[C@H](O)CO)c1ccc(F)c(F)c1Nc1ccc(I)cc1F` [PD0325901, (R)—N-(2,3-dihydroxypropoxy)-3,4-difluoro-2-(2-fluoro-4-iodophenylamino)benzamide, reference compound]: the cell growth result in assay [1] (7 NSCLC cell lines) is on record as “five of them were sensitive to PD0325901 inhibition”; in assay [1] (BxPC3 and Panc-1) it was “intermediate response”; in assay [1] (H460 and H1650), “showed less response”; in assay [1] (MiaPaCa2 and Su86.86), “sensitive to PD0325901 as a single agent”.

`C#Cc1cccc(Nc2ncnc3cc(OCCOC)c(OCCOC)cc23)c1` [erlotinib, N-(3-ethynylphenyl)-6,7-bis(2-methoxyethoxy)quinazolin-4-amine, reference compound]: the “phosphorylation of MAPK” value is “partial inhibition of MAPK phosphorylation” in assay [2] (A549 cells); “completely abolished detectable phosphorylation of MAPK” in assay [2] (H322M cells); “little effect” in assay [2] (H1299 and NCI-H23 cells). The cell growth entry in assay [3] (erlotinib single agent, 7 NSCLC cell lines, five days) was “substantially inhibited the growth of only H322M and H1650 cell lines”; in assay [3] (erlotinib, 5 colon cancer cell lines) it was “none of 5 colon cancer cell lines showed substantial growth inhibition”.

As for “(16Z,24Z,26Z,28Z)-1,18-dihydroxy-12-[1-(4-hydroxy-3-methoxycyclohexyl)propan-2-yl]-19-methoxy-15,17,21,23,29,35-hexamethyl-30-(5-methylthiophen-2-yl)-11,36-dioxa-4-azatricyclo[30.3.1.0̂ {4,9}]hexatriaconta-16,24,26,28-tetraene-2,3,10,14,20-pentone [rapamycin, reference compound]”, in assay [4], the “phosphorylation of S6K” value is recorded as “inhibited phosphorylation of S6K”. Besides, the AKT phosphorylation entry in assay [4] (all cell lines tested) is “induced AKT phosphorylation in all cell lines tested”. The cell growth result is recorded as “most colon cancer cell line tested did not respond well to rapamycin” in assay [5] (rapamycin, colon cancer cell lines) and “did not respond” in assay [5] (single agent, SJSA-1 cells).

Consider SD010: hIGF-1R-Fc mutant G271D, for which, in the assay with IGF-1R-Fc, the C06 binding result is reported as “NE (No effect (NE): measured KD within 2.5-fold of WT hIGF-1R-Fc)”, the C03 binding entry is “NE (No effect (NE): measured KD within 2.5-fold of WT hIGF-1R-Fc)”, the G11 binding entry is given as “NE (No effect (NE): measured KD within 2.5-fold of WT hIGF-1R-Fc)” and the P1E2 binding result is reported as “NE (No effect (NE): measured KD within 2.5-fold of WT hIGF-1R-Fc)”. Moreover, the αIR3 binding result in the assay on IGF-1R-Fc is reported as “NE (No effect (NE): measured KD within 2.5-fold of WT hIGF-1R-Fc)”. In the assay on IGF-1R, the “Biacore Relative RUmax” value came out at 0.8.

For SD007: hIGF-1R-Fc mutant N237G, in the assay on IGF-1R-Fc, the C06 binding entry is “NE (No effect (NE): measured KD within 2.5-fold of WT hIGF-1R-Fc)”, the C03 binding entry is given as “NE (No effect (NE): measured KD within 2.5-fold of WT hIGF-1R-Fc)”, the G11 binding result is listed as “NE (No effect (NE): measured KD within 2.5-fold of WT hIGF-1R-Fc)” and the P1E2 binding result is “NE (No effect (NE): measured KD within 2.5-fold of WT hIGF-1R-Fc)”. In the assay on IGF-1R-Fc, the αIR3 binding entry is given as “NE (No effect (NE): measured KD within 2.5-fold of WT hIGF-1R-Fc)”. Further, in the assay with IGF-1R, the “Biacore Relative RUmax” value was determined as 1.3.
